Active and inactive are the calls of the source.
Tests used:
Mu-type opioid receptor = Mu-type opioid receptor (Homo sapiens, UniProt P35372); assay: (§1) Counterscreen for agonists of heterodimerization of the mu 1 (OPRM1) and delta 1 (OPRD1) opioid receptors: Luminescence-based cell-based high throughput dose response assay to identify agonists of OPRM1 homodimerization.; type: functional
[1] = target: Delta-type opioid receptor (Homo sapiens, UniProt P41143); assay: as §1, with “of OPRD1” for “of OPRM1”, “homodimerization. [Related pubchem assays (depositor defined):AID504326, AID504355, AID504692, AID504904, AID504905]” for “homodimerization.”; type: functional
Delta-type opioid receptor, sequence (P41143 whole entry): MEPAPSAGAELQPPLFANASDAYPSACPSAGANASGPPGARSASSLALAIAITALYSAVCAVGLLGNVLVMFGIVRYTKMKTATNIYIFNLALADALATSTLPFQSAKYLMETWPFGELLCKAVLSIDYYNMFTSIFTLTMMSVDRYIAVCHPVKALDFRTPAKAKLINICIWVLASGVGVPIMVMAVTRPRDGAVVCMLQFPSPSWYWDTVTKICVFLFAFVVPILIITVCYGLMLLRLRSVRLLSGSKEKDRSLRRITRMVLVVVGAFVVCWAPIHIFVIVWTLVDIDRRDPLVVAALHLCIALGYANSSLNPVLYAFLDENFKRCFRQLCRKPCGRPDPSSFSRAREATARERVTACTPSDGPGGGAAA

[2] = target: 5-hydroxytryptamine receptor 5A (Homo sapiens, UniProt P47898); assay: Counterscreen for agonists of OPRM1-OPRD1 heterodimerization: luminescence-based cell-based high throughput dose response assay to identify agonists of 5-hydroxytryptamine (serotonin) 5A receptor (HTR5A). [Related pubchem assays (depositor defined):AID504326, AID504355, AID504692, AID504904, AID504905]; type: functional
5-hydroxytryptamine receptor 5A, sequence (P47898 whole entry): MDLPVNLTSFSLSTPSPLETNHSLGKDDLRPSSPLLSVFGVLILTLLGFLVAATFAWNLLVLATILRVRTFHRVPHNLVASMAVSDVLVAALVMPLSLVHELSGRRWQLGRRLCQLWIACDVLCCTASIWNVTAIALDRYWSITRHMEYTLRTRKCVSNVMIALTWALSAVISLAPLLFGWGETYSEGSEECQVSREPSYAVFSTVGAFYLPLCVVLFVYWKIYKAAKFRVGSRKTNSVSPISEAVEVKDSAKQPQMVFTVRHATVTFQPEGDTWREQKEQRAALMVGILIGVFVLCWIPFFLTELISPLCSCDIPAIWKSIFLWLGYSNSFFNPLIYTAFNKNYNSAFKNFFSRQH

[3] = target: T1, Short transient receptor potential channel 4 (Mus musculus, UniProt Q9QUQ5); assay: mouse TRPC4 channel activators, dose response, cell-based, HEK293 TRPC4/mu-opioid, Fluo-4 calcium (AID 434937); type: functional
T1 sequence (Q9QUQ5 whole entry): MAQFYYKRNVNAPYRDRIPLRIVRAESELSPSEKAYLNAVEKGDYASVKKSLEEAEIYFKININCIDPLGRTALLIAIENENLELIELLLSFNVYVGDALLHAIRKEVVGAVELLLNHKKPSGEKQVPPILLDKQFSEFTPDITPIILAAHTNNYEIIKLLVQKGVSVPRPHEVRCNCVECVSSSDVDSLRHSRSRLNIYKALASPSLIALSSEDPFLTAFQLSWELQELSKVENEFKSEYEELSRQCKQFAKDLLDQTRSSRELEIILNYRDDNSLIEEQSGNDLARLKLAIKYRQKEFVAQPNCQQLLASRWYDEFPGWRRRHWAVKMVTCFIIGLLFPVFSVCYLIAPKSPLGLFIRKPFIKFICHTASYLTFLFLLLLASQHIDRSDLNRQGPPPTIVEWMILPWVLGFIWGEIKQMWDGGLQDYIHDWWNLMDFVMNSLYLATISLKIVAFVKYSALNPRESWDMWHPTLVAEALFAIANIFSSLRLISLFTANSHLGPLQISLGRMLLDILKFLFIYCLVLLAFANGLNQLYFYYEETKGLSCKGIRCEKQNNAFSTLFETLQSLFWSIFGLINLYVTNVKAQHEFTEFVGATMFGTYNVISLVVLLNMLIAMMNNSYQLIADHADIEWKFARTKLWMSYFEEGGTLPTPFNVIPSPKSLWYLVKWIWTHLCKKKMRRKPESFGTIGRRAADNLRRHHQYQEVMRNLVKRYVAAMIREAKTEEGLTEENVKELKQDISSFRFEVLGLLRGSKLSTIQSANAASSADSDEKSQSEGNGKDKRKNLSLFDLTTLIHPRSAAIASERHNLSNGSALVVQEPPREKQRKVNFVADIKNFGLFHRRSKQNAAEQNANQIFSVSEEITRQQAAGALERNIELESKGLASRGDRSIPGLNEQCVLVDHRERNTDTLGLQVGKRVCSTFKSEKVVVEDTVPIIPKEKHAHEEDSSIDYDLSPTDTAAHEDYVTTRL

[4] = target: Voltage-gated inwardly rectifying potassium channel KCNH2 (Homo sapiens, UniProt Q12809); conditions: Potency;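 also: confirmatory quantitative high-throughput screen measuring inhibition of hERG channel activity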
Voltage-gated inwardly rectifying potassium channel KCNH2, sequence (Q12809 whole entry): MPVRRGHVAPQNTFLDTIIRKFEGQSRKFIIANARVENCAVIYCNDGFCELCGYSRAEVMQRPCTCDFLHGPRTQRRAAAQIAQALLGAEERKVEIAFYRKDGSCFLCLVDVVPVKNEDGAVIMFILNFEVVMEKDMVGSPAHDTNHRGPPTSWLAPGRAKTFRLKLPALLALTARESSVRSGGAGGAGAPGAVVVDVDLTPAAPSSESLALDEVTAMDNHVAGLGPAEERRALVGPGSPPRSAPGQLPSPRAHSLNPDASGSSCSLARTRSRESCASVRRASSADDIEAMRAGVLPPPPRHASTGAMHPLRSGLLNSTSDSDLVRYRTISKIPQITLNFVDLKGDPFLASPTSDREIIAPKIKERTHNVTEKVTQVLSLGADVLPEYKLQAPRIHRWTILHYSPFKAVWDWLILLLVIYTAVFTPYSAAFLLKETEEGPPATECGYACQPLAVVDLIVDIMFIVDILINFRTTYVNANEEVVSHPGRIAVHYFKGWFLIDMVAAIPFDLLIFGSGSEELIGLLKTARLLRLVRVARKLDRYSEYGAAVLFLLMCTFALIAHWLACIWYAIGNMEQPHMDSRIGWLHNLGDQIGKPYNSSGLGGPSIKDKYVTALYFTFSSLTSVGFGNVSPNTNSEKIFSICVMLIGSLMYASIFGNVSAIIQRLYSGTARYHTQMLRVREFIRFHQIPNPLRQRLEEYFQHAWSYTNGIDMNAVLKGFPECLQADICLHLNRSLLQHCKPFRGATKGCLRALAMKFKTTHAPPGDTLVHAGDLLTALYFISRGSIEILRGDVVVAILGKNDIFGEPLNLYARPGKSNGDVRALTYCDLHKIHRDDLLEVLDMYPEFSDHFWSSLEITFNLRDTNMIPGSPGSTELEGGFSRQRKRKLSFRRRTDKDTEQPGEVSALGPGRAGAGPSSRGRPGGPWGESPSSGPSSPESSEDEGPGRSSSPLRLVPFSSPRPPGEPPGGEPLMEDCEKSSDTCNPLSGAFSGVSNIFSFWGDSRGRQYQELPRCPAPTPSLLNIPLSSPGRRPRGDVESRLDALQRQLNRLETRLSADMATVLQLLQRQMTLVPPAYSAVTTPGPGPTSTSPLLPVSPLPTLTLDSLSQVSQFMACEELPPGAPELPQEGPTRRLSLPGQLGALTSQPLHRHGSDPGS

HeLa = assay: HeLa cell cytotoxicity, dose response, cytotoxicity control for MITF activator project, CellTiter-Glo luminescence, cherry-pick samples (AID 540259); type: functional, cell-based; conditions: Homo sapiens
[5] = target: Glyceraldehyde-3-phosphate dehydrogenase (Homo sapiens, UniProt P04406)
Glyceraldehyde-3-phosphate dehydrogenase, sequence (P04406 whole entry): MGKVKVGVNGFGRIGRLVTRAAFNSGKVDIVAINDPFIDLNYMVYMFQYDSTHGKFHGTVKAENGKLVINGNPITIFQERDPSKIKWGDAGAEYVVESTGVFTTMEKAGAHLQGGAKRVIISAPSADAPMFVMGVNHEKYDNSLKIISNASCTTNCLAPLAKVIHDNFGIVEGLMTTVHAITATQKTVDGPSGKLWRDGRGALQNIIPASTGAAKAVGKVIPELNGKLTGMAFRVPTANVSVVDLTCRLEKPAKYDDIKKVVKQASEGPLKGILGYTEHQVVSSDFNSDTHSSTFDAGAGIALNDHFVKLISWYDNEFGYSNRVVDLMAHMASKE

[6] = target: T2, Dual specificity protein phosphatase 6 (Rattus norvegicus, UniProt Q64346)
T2 sequence (Q64346 whole entry): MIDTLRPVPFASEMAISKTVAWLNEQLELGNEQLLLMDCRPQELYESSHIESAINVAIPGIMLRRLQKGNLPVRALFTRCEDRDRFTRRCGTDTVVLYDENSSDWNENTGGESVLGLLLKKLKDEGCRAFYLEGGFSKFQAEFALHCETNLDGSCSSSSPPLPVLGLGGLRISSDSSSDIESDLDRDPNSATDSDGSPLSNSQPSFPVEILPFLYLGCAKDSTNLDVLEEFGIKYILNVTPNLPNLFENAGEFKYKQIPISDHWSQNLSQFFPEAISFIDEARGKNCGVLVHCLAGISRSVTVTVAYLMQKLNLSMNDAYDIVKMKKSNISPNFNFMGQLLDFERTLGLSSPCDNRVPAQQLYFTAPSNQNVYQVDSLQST

[7] = target: T2, Dual specificity protein phosphatase 6; type: functional
[8] = target: T3, Tyrosine-protein phosphatase non-receptor type 7 (Homo sapiens, UniProt P35236); type: functional
T3 sequence (P35236 whole entry): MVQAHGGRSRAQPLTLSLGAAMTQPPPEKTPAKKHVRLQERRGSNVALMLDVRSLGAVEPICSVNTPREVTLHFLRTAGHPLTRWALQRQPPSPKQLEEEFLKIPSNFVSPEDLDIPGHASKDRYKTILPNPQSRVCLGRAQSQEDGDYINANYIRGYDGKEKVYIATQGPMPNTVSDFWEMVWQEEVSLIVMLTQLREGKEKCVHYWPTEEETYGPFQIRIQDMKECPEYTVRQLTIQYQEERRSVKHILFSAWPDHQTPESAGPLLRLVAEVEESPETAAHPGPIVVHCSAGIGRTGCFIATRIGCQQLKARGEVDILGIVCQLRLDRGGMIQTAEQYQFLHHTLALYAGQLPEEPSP

[9] = target: Glucose-6-phosphate 1-dehydrogenase (Homo sapiens, UniProt P11413); assay: human G6PD enzyme inhibitors, dose response, selectivity assay for P. falciparum G6PD inhibitor project, biochemical, fluorescence (AID 504792); type: functional
Glucose-6-phosphate 1-dehydrogenase, sequence (P11413 whole entry): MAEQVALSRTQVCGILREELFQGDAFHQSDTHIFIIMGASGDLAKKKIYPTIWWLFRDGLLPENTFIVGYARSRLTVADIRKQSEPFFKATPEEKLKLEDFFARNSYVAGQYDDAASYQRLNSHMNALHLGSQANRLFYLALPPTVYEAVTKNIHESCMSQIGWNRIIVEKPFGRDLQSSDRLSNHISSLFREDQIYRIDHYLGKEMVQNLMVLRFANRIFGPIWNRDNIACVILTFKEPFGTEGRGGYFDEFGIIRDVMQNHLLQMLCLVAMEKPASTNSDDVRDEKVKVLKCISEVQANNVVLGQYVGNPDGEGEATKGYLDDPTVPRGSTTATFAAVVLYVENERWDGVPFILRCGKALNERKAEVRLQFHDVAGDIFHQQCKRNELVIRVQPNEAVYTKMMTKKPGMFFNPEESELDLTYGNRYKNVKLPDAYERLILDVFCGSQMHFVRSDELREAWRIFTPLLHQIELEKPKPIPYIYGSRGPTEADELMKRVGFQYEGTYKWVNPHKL

Mu-type opioid receptor, sequence (P35372 whole entry): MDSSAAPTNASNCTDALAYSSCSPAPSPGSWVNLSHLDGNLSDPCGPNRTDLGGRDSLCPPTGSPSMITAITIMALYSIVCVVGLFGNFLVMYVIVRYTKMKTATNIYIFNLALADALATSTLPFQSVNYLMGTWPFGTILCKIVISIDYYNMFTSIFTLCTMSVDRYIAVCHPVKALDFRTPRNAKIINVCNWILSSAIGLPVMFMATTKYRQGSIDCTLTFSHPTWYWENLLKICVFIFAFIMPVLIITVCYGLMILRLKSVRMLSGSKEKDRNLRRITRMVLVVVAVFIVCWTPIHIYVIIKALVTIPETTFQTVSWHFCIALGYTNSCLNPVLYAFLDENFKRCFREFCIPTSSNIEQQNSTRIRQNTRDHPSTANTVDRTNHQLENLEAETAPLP

Question: With `COc1ccc(C(CNC(=O)CSc2ccccc2C)N(C)C)cc1` (stereo unspecified) as the compound, how does the EC50 (Mu-type opioid receptor) read?
Answer: > 92.5 µM (inactive)

Question: And the EC50 [1]?
Answer: > 92.5 µM (inactive)

Question: And the EC50 [2]?
Answer: > 92.5 µM (inactive)

Question: What about the EC50 [3] of the same compound?
Answer: 0.237 µM (active)

Question: How did the AC50 [4] turn out when `Cc1cccc(C)c1OCC(N)C(C)C` (stereo unspecified) was run?
Answer: 35.5 µM (inconclusive)

Question: How did the AC50 (HeLa) turn out when `Nc1ccc(CSc2ccc(Cl)cc2)c(Cl)c1` was run?
Answer: 75.6 µM (active)

Question: `Cn1c(=O)n(-c2ccccc2)c(=O)n([C@@H](Cc2ccccc2)C(N)=O)c1=O` was tested. Which IC50 [5] did it give?
Answer: > 100 µM (not active)

Question: What about the IC50 [6] of the same compound?
Answer: > 100 µM (inactive)

Question: And the IC50 [7]?
Answer: > 100 µM (inactive)

Question: And the IC50 [8]?
Answer: > 100 µM (not active)

Question: For `CCOc1ccc(N(CC(=O)N/N=C/c2cc([N+](=O)[O-])ccc2Cl)S(C)(=O)=O)cc1`, which IC50 [9] is on record?
Answer: > 80 µM (inactive)

From ChEMBL document CHEMBL1201862, “PubChem BioAssay data set” (2004)
